Laboratory results published in ChEMBL document CHEMBL1201862, “PubChem BioAssay data set” (2004).
The source made the active and inactive calls.

What was measured:
[1] = molecular target: Potassium voltage-gated channel subfamily KQT member 2 (Rattus norvegicus, UniProt O88943, W236L); assay: potentiation of rat KCNQ2 current – cell-based, automated electrophysiology, mechanism study for KCNQ2 potentiator project, dose response (AID 2603); format: functional
Bcl-2-related protein A1 = molecular target: T1, Bcl-2-related protein A1 (Mus musculus, UniProt Q07440); format: functional;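 note: confirmatory dose–response counterscreen on Bfl-1, used to check hits from a UBC13 polyubiquitin inhibitor campaign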
T1 sequence (Q07440 whole entry): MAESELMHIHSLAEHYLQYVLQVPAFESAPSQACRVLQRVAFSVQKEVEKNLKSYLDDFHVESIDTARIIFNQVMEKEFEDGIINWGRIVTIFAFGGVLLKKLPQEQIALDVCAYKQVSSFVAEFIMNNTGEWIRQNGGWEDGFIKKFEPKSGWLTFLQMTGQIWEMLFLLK

[2] = molecular target: T2, Ubiquitin-conjugating enzyme E2 N (Homo sapiens, UniProt P61088); format: functional
T2 sequence (P61088 whole entry): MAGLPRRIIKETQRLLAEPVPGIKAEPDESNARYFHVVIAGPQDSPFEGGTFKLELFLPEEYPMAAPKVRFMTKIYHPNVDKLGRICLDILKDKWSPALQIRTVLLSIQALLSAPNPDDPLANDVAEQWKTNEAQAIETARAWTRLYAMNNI

[3] = molecular target: T2, Ubiquitin-conjugating enzyme E2 N; format: functional; remark: listed apart in the source
[4] = molecular target: T3, Replicative DNA helicase DnaB (Mycobacterium tuberculosis, UniProt P9WMR3); assay: DnaB intein splicing inhibitors, dose response, biochemical, cell-free fluorescence (AID 449749); format: functional
T3 sequence (P9WMR3 whole entry): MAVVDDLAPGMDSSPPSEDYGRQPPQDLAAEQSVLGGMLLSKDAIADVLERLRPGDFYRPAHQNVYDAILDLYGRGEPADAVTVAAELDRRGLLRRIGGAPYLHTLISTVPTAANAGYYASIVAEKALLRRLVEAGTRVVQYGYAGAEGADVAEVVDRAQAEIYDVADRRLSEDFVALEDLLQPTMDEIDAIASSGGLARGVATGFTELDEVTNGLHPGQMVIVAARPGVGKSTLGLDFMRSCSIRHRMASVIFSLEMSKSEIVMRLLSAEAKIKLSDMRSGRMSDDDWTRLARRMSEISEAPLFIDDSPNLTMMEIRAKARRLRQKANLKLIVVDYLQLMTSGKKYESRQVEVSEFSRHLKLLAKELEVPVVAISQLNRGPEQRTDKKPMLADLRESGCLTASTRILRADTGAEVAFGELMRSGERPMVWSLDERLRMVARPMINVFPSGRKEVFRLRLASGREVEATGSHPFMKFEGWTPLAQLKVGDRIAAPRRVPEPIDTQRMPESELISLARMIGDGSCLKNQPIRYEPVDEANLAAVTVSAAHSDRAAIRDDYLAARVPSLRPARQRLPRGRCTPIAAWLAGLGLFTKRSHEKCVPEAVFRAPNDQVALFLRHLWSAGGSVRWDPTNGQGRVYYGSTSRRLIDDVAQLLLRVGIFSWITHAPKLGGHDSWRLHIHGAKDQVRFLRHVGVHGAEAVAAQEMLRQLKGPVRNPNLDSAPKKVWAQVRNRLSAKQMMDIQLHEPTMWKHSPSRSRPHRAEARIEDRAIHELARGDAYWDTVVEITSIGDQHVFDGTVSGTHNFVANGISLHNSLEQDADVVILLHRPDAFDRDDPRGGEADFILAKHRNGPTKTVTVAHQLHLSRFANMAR

[5] = molecular target: T4, High affinity choline transporter 1 (Homo sapiens, UniProt Q9GZV3); assay: human choline transporter blockers, potency – cell-based, 5-point CRC, membrane potential dye, dose response (AID 504840); format: functional
T4 sequence (Q9GZV3 whole entry): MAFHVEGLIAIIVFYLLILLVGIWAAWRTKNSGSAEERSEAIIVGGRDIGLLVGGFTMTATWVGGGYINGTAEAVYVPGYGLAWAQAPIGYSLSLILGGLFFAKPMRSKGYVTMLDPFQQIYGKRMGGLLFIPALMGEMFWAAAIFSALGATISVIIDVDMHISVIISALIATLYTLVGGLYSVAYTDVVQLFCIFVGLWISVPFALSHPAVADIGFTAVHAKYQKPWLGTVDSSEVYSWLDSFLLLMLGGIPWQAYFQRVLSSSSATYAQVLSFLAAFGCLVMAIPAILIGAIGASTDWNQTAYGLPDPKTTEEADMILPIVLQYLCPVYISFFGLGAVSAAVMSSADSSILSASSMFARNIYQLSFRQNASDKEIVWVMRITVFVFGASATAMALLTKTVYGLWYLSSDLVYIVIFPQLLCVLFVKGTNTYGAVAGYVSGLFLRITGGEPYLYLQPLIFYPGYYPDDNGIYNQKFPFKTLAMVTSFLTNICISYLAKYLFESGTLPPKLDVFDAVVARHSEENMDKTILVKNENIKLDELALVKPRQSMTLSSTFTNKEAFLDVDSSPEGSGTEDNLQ

Vero = assay: viability of Vero cells under compound – cytotoxicity control for flavivirus capping enzyme inhibitors (AID 588742); format: functional; settings: Chlorocebus sabaeus
Protein RecA = molecular target: T5, Protein RecA (Mycobacterium tuberculosis, UniProt P9WHJ3); assay: Fluorescence Cell-Free Homogeneous Dose Retest to Identify Inhibitors of RecA-Intein Splicing Activity. [Related pubchem assays (depositor defined):AID2097, AID2223, AID489010, AID492950]; format: functional
T5 sequence (P9WHJ3 whole entry): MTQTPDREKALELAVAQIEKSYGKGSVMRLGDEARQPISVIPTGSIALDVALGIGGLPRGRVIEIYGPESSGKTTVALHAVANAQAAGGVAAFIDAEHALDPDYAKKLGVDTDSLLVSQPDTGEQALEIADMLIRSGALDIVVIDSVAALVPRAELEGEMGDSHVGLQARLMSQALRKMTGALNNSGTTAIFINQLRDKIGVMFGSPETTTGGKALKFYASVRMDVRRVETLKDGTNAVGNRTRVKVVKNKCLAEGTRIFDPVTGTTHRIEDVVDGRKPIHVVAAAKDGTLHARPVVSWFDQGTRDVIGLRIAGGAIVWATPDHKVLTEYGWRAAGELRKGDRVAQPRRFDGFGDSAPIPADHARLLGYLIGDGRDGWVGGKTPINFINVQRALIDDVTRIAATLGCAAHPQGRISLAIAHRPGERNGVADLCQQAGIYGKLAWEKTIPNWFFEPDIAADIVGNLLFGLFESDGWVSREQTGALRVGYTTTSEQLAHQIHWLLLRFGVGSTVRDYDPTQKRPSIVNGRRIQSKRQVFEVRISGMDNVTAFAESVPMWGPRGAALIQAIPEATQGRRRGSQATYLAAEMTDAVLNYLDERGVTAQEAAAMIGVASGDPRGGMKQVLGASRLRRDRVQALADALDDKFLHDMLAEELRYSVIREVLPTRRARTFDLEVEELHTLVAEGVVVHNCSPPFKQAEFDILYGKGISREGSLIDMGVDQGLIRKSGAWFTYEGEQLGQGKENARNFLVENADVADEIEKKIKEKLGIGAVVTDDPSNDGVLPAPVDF

[6] = molecular target: T4, High affinity choline transporter 1; assay: human choline transporter blockers, potency – cell-based, 10-point CRC, membrane potential dye, dose response (AID 588401); format: functional;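 note: membrane potential dye fluorescence of choline-evoked depolarization via CHT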
Genome polyprotein = Genome polyprotein (dengue virus type 2, UniProt P29990); assay: flavivirus cap methylation enzyme inhibition – biochemical, confirmation dose response, primary screen (AID 588689); format: functional
Chain of Genome polyprotein (P29990 2492-3391 limits assumed): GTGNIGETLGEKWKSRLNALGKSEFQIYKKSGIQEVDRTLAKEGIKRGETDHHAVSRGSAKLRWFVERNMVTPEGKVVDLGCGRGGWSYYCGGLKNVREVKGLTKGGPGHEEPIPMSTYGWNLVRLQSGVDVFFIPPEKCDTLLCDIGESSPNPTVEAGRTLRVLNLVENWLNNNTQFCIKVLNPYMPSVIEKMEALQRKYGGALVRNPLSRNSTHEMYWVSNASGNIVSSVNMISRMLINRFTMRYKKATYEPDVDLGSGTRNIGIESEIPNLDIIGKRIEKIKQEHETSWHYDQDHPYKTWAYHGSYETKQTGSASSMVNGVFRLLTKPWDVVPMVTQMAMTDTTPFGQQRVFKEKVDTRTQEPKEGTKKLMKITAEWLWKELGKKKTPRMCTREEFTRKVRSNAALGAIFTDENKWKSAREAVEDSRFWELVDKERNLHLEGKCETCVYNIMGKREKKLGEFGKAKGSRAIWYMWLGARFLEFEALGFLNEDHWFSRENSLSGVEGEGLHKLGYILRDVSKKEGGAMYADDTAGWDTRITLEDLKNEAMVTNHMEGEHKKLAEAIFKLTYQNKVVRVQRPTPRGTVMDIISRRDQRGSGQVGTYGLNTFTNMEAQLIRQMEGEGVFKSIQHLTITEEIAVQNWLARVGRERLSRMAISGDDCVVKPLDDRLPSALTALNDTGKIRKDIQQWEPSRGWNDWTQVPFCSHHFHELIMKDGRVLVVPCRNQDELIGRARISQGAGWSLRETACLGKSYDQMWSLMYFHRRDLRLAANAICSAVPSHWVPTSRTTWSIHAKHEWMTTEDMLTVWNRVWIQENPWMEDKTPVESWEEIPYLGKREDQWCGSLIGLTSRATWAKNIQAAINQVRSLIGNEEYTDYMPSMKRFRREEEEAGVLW

[7] = reduction of Shn3 3'UTR-driven luciferase in osteoblasts – cell-based, Clone20 osteoblasts, firefly luciferase, cherry-picked, dose response (AID 624132); format: functional;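 note: firefly luciferase luminescence from reporter carrying the Shn3 3'UTR in osteoblasts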
[8] = non-specific 3'UTR reporter inhibition in Clone20-Shn3RL – cell-based, Renilla luciferase, cherry-picked, counter-screen for Shn3 inhibitor project, dose response (AID 624133); format: functional
[9] = Shn3 transcript knock-down in Clone20 cells – cell-based, qPCR, cherry-pick, dose response (AID 743415); format: functional
[10] = Shn3 3'UTR reporter signal decrease – cell-based, Clone20 osteoblasts, firefly luciferase, cherry-pick, set 2, Schnurri-3 inhibitor project, dose response (AID 720490); format: functional;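 note: actives lower the luminescence signal as inhibitors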
[11] = EF1alpha-driven Renilla reporter with control 3'UTR suppression – Clone20-Shn3RL cells, dual-Glo, cherry-pick, set 2, counter-screen for Shn3 3'UTR targeting project, dose response (AID 720724); format: functional, cell-based; settings: Dual-Go Shn3RL
BJ [12] = assay: BJ-TERT fibroblast viability loss – cell-based, RAS-independent, luminescence, dose response (AID 1933); format: functional; settings: Homo sapiens
BJ [13] = assay: cells; format: functional, cell-based; settings: Homo sapiens
[14] = Luminescence-based dose response cell-based high throughput screening assay for cytotoxic compounds using the IEC-6 intestinal epithelial cell line. [Related pubchem assays: 1858 (Summary AID.), 1825 (Counterscreen.), 1907 (Confirmation screen.)]; format: functional
[15] = DRD fibroblast viability loss – cell-based, non-viral oncogenic, luminescence, dose response (AID 1934); format: functional; settings: Homo sapiens
BJ [16] = assay: growth inhibition of engineered Ras-driven BJ cells – cell-based, alamar blue fluorescence, cherrypicked samples, dose response (AID 2631); format: functional; settings: Homo sapiens;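 note: confirmatory dose-response assay in RAS-dependent BJ fibroblasts engineered with TERT, LT and ST, with cytotoxicity read by fluorescence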
cells = format: functional, cell-based
[17] = molecular target: T6, Nuclear receptor subfamily 0 group B member 1 (Homo sapiens, UniProt P51843); format: functional, cell-based;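 note: HEK293T cells transfected with SF-1 and DAX-1 plus StAR promoter luciferase reporter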
T6 sequence (P51843 whole entry): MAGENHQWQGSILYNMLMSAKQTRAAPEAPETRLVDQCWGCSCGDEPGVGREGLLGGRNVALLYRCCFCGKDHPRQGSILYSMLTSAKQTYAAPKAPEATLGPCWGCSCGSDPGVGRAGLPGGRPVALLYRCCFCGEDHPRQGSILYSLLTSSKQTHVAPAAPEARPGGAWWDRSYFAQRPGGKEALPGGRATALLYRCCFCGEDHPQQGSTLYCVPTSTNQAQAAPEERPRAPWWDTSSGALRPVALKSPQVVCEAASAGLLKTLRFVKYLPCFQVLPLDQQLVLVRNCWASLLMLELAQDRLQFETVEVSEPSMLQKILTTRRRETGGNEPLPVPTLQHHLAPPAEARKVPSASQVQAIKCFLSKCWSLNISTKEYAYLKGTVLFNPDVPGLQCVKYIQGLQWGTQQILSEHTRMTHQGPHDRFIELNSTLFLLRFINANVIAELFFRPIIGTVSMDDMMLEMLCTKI

Leucine aminopeptidase = molecular target: T7, Leucine aminopeptidase (Plasmodium falciparum 3D7, UniProt Q8IL11); assay: P. falciparum M17LAP inhibitors, primary screen, biochemical, fluorogenic H-Leu-NHMec substrate, 1536-well (AID 1619); format: functional
T7 sequence (Q8IL11 whole entry): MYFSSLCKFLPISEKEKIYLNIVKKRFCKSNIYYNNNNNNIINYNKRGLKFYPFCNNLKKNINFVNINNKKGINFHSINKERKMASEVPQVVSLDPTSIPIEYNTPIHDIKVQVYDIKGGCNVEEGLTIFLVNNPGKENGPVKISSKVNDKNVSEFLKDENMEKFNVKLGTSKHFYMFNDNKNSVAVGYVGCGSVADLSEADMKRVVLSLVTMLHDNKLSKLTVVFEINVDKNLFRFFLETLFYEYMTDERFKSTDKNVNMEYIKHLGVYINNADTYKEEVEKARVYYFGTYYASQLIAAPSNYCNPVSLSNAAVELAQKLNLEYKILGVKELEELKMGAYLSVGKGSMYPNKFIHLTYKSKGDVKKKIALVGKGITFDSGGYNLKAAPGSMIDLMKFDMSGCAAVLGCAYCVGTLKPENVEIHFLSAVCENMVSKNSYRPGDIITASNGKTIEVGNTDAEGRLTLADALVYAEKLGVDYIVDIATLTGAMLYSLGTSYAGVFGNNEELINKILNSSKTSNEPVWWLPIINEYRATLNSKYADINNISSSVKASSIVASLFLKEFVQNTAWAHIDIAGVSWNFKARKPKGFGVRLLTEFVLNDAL

Aspartyl aminopeptidase = Aspartyl aminopeptidase (Plasmodium falciparum 3D7, UniProt Q8I2J3); assay: Counterscreen for inhibitors of M1 and M17 aminopeptidases: QFRET-based biochemical high throughput dose response assay for inhibitors of the Plasmodium falciparum M18 Aspartyl Aminopeptidase (PFM18AAP). [Related PubChem assays: 1619 (Screening assay (M17LAP inhibitors).), 1445 (Screening assay (M1AAP inhibitors).)]
Chain of Aspartyl aminopeptidase (Q8I2J3 whole entry): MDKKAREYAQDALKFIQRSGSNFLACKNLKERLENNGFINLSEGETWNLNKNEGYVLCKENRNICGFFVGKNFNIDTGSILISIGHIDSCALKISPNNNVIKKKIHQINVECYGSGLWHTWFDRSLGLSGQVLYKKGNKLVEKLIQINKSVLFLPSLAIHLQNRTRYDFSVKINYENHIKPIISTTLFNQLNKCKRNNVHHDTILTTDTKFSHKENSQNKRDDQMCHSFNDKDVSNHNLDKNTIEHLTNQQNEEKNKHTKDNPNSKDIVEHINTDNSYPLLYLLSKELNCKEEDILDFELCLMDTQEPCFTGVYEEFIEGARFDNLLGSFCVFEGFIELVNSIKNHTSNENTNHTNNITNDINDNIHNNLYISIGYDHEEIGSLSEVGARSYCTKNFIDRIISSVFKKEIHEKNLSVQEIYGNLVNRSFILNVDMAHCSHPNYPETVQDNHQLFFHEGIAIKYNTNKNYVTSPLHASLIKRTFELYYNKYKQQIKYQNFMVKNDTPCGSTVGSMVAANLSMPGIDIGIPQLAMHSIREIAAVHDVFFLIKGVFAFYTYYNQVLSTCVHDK

Procathepsin L = Procathepsin L (Homo sapiens, UniProt P07711); assay: CTSL1 protease inhibition – biochemical, QFRET, 1536-well, counter-screen for M1/M17 aminopeptidase inhibitor project, dose response (AID 2214)
Chain of Procathepsin L (P07711 whole entry): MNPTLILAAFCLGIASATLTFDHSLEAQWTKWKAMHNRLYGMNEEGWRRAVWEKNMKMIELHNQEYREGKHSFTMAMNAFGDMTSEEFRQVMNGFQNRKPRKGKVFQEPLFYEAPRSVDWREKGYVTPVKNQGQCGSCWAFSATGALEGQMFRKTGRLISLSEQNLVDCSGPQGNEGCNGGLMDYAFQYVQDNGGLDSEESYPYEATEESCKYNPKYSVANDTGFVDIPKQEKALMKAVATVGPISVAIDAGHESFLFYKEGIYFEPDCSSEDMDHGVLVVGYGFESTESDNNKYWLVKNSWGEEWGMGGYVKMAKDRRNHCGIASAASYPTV

Chain of Potassium voltage-gated channel subfamily KQT member 2 (O88943 whole entry W236L): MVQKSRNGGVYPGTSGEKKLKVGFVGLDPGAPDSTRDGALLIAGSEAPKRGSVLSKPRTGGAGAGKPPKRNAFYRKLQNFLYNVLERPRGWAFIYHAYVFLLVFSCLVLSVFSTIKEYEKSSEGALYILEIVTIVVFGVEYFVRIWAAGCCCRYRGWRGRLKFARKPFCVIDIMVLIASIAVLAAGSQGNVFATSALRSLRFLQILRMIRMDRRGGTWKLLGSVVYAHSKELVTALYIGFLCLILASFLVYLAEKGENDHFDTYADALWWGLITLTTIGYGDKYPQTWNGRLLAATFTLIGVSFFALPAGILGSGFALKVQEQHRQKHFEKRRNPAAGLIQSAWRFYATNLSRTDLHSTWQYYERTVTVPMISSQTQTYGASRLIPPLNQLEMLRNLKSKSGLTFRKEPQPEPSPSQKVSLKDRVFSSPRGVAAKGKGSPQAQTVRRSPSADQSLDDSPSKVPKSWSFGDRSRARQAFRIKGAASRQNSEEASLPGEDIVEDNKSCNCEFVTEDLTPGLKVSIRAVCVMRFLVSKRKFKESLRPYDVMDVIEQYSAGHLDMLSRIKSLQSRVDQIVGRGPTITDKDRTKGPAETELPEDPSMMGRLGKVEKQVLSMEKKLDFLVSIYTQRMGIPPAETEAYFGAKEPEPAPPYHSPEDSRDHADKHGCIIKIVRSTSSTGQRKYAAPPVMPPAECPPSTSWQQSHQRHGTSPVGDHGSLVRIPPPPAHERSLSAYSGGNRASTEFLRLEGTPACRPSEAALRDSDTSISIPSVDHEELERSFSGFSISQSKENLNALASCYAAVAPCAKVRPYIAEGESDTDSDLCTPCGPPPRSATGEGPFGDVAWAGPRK

CCCc1nnc(NC(=O)c2nc(S(=O)(=O)Cc3ccc(C)cc3)ncc2Cl)s1
EC50 [1]: 3.02 µM (active)
IC50 (Bcl-2-related protein A1): > 20 µM (inactive)
IC50 [2]: 10.5 µM (active)
IC50 [3]: 14.8 µM (active)
AC50 [4]: > 380 µM (inactive)
IC50 [5]: 2.59 µM (active)
CC50 (Vero): > 40 µM (active)
EC50 (Protein RecA): 86.7 µM (active)
IC50 [6]: 3.36 µM (active)
IC50 (Genome polyprotein): > 100 µM (active)
AC50 [7]: 0.538 µM (active)
AC50 [8]: 12.5 µM (active)
AC50 [9]: 13.4 µM (active)
AC50 [10]: 2.05 µM (active)
AC50 [11]: 40.7 µM (active)

N#Cc1c(NC(=O)/C=C/c2ccco2)sc2c1CCCC2
EC50 (BJ [12]): 0.181 µM (active)
EC50 (BJ [13]): 1.48 µM (inconclusive)
IC50 [14]: 0.136 µM (active)
EC50 [15]: 0.278 µM (active)
EC50 (BJ [16]): < 0.104 µM (active)
IC50 (cells): > 67.6 µM (inactive)
IC50 [17]: 1.43 µM (active)

CCOc1cccc(-c2cc(O)[nH]n2)c1
IC50 (Leucine aminopeptidase): 1.25 µM (active)
IC50 (Aspartyl aminopeptidase): > 73.5 µM (not active)
IC50 (Procathepsin L): > 59.6 µM (not active)
AC50 [4]: 2.18 µM (active)
EC50 (Protein RecA): 0.695 µM (active)
